Laboratory results taken from US7342027B2 (Yuhan Corporation, priority 2002, dated 2008).

Columns and labels:
[1] = biological target: T1, Recombinant human cathepsin K (Homo sapiens, UniProt P43235); assay: Inhibition of cathepsin K activity (Z-Phe-Arg-AMC fluorescence assay); format: biochemical; conditions: 25 uM Z-Phe-Arg-AMC, pH 5.5, 1 hour at 37° C.
T1 construct: made in house
T1 sequence (P43235 115-329): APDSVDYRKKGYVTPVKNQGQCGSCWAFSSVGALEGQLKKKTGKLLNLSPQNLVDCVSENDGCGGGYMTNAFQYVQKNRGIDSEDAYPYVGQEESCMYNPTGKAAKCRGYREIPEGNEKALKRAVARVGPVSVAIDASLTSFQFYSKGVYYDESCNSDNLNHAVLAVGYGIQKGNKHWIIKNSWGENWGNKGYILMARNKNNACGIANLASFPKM
How it was run: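 Z-Phe-Arg-AMC at 25 uM in 100 mM Na acetate pH 5.5 with 20 mM cysteine, 5 mM EDTA and 2% final DMSO; reaction started by adding enzyme, then 1 hour at 37° C. Fluorescence read at ex 360/em 460 nm; IC50 is the concentration giving 50% inhibition.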

[2] = biological target: T2, Cathepsin C (Sigma, C8511) (Bos taurus, UniProt Q3ZCJ8); assay: Selectivity study: cathepsin C (Gly-Phe-pNA); format: biochemical; conditions: 1 hour at 37° C., read-out: Cathepsins (IC50, nM) C
T2 construct: purchased Sigma C8511
T2 sequence (Q3ZCJ8 25-463): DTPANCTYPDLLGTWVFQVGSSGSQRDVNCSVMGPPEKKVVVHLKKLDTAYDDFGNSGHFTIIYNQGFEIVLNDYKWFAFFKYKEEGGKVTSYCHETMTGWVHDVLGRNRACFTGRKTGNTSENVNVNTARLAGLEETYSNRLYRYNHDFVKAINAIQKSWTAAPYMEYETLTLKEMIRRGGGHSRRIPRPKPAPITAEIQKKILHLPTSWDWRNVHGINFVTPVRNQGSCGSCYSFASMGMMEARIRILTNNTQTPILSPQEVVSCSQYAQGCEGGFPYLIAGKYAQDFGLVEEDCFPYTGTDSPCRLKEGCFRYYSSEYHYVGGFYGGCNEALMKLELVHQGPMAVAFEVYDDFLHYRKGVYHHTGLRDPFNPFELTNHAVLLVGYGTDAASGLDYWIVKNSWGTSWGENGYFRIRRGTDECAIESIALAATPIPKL
Procedure: (§1) Test 2: Selectivity Study
(§2) Selectivity study for the compounds of the present invention was performed using cathepsin C (Sigma, C8511), cathepsin G (Calbiochem, 219373), cathepsin H (Calbiochem, 219388), cathepsin L (Calbiochem, 219402), and cathepsin S (Eur. J. Biochem. 236, 558 (1996) as enzyme sources.
(§3) Cathepsin C (Sigma, C8511) was dissolved in D.W. buffer (pH 5.5). All inhibitors were prepared in dimethyl sulfoxide (DMSO). In vitro assays for cathepsin C were conducted with Gly-Phe-pNA (Sigma, G-0142) as a substrate. Samples were pre-incubated for 10 minutes at 37° C. Reaction was initiated by the addition of enzyme to samples, which were then incubated for 1 hour at 37° C. The absorbance of p-nitroaniline released was monitored at 405 nm using spectrophotometer.
(§4) The concentrations of the test compounds, which inhibit 50% of cathepsin s C, G, H, L and S activity, are represented as IC50 in Table 2.

[3] = biological target: T3, Cathepsin G (Calbiochem, 219373) (Homo sapiens, UniProt P08311); assay: Selectivity study: cathepsin G (Suc-Ala-Ala-Pro-Phe-pNA); format: biochemical; conditions: 1 hour at 25° C., read-out: Cathepsins (IC50, nM) G
T3 construct: purchased Calbiochem 219373
T3 sequence (P08311 21-244): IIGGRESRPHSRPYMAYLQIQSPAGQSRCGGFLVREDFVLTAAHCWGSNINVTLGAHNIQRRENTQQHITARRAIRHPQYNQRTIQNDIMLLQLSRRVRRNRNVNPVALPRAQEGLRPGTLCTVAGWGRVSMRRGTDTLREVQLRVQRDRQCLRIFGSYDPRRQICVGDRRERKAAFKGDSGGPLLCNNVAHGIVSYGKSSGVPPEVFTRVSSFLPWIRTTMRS
Procedure: as §1, §2
as §3, with “Cathepsin G (Calbiochem, 219373)” for “Cathepsin C (Sigma, C8511)”, “in 50 mM NaOAc and 150 mM NaCl” for “in D.W.”, “cathepsin G” for “cathepsin C”, “with Suc-Ala-Ala-Pro-Phe-pNA (Calbiochem, 219407)” for “with Gly-Phe-pNA (Sigma, G-0142)”, “at 25°” for “at 37°”
as §4

[4] = biological target: T4, Cathepsin H (Calbiochem, 219388) (Homo sapiens, UniProt P09668); assay: Selectivity study: cathepsin H (L-Arg-pNA); format: biochemical; conditions: 1 hour at 40° C., read-out: Cathepsins (IC50, nM) H
T4 construct: purchased Calbiochem 219388
T4 sequence (P09668 98-335): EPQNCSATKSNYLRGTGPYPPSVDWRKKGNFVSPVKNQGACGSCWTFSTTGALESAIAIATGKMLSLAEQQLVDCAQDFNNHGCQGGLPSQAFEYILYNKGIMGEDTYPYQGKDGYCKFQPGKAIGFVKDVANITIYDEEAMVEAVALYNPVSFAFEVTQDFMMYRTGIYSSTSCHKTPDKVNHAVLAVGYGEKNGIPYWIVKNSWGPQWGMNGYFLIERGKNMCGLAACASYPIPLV
Procedure: as §1, §2
Cathepsin H (Calbiochem, 219388) was dissolved in 20 mM NaOAc, 1 mM EDTA-2Na and 100 mM NaCl buffer (pH 4.6). All inhibitors were prepared dimethyl sulfoxide (DMSO). In vitro assays for cathepsin H were conducted with L-Arg-pNA (BACHEM, 1-1160) as a substrate. Samples were pre-incubated for 5 minutes at 40° C. Reaction was initiated by the addition of enzyme to samples, which were then incubated for 1 hour at 40° C. The absorbance of p-nitroaniline released was monitored at 405 nm using spectrophotometer.
as §4

[5] = biological target: T5, Cathepsin L (Calbiochem, 219402) (Homo sapiens, UniProt P07711); assay: Selectivity study: cathepsin L (Z-Phe-Arg-AMC); format: biochemical; conditions: 1 hour at 25° C., read-out: Cathepsins (IC50, nM) L
T5 construct: purchased Calbiochem 219402
T5 sequence (P07711 114-333): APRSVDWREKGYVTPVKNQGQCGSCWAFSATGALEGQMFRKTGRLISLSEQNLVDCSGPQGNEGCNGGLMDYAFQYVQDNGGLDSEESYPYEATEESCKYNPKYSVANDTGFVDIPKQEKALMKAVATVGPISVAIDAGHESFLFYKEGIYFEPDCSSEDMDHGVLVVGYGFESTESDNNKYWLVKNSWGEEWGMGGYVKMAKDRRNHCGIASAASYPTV
Procedure: as §1, §2
Cathepsin L (Calbiochem, 219402) was dissolved in 50 mM NaOAc buffer (pH 5.0). All inhibitors were prepared in dimethyl sulfoxide (DMSO). […] Samples were pre-incubated for 5 minutes at 25° C. Reaction was initiated by the addition of enzyme to samples, which were then incubated for 1 hour at 25° C. The fluorescence of AMC (7-amino-4-methylcoumarin) was monitored at 460 nm (excitation wavelength 360 nm), using fluorescence spectrophotometer.
as §4

[6] = biological target: Recombinant human Cathepsin S (Homo sapiens, UniProt P25774); assay: Selectivity study: cathepsin S (Z-Val-Val-AMC); format: biochemical; conditions: 30 minutes at 37° C., read-out: Cathepsins (IC50, nM) S
Sequence of Recombinant human Cathepsin S (P25774 115-331): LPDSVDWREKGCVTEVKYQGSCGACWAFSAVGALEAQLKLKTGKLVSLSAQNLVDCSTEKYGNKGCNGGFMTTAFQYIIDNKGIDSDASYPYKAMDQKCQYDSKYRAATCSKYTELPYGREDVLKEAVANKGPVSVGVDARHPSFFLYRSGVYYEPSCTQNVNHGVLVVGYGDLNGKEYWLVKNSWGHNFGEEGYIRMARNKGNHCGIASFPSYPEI
Procedure: as §1, §2
Recombinant human Cathepsin S (Eur. J. Biochem. 236, 558 (1996) was dissolved in 0.1 M NaOAc 1 mM EDTA-4Na buffer (pH 5.5). All inhibitors were prepared in dimethyl sulfoxide (DMSO). In vitro assays for cathepsin S were conducted with Z-Val-Val-AMC (BACHEM, 1-1160) as a substrate. Samples were pre-incubated for 10 minutes at 4° C. Reaction was initiated by the addition of enzyme to samples, which were then incubated for 30 minutes at 37° C. The florescence of AMC (7-amino-4-methylcoumarin) released was monitored at 465 nm (excitation wavelength 360 nm), using fluorescence spectrophotometer.
as §4

Row | SMILES | IC50 [1] [nM] | IC50 [2] [nM] | IC50 [3] [nM] | IC50 [4] [nM] | IC50 [5] [nM] | IC50 [6] [nM] | melting point [°C]
1 | CS(=O)(=O)c1ccccc1N1CCC(NC(=O)C2(NC(=O)c3cc4ccccc4o3)CCCCC2)C(=O)C1 (stereo not drawn) [Example 1, 4-[N-[1-[N-(benzofuran-2-ylcarbonyl)amino]cyclohexanecarbonyl]amino]-1-(2-methylsulfonylphenyl)piperidin-3-one] | 8.17 | 382 | > 240 | > 240 | 138 | 133 | 219 to 220
2 | CS(=O)(=O)c1cc(F)ccc1N1CCC(NC(=O)C2(NC(=O)c3ccco3)CCCCC2)C(=O)C1 (stereo not drawn) [Example 83, 4-[N-[1-[N-(furan-2-ylcarbonyl)amino]cyclohexanecarbonyl]amino]-1-(4-fluoro-2-methylsulfonylphenyl)piperidin-3-one] | 2.69 | > 810 | > 810 | > 810 | 352 | 177 | 
3 | O=C(NC1(C(=O)NC2CCN(c3ccccc3[N+](=O)[O-])CC2=O)CCCCC1)c1cc2ccccc2o1 (stereo not drawn) [Example 2, 4-[N-[1-[N-(benzofuran-2-ylcarbonyl)amino]cyclohexanecarbonyl]amino]-1-(2-nitrophenyl)piperidin-3-one] | 5.97 | > 1000 | > 1000 | > 1000 | 2100 | 2100 | 
4 | O=C(NC1(C(=O)NC2CCN(c3ccccc3N3CCCC3=O)CC2=O)CCCCC1)c1cc2ccccc2o1 (stereo not drawn) [Example 44, 4-[N-[1-[N-(benzofuran-2-ylcarbonyl)amino]cyclohexanecarbonyl]amino]-1-[2-(pyrrolidin-2-one-1-yl)phenyl]piperidin-3-one] | 4.96 | 394 | > 690 | > 690 | 574 | 460 | 
5 | COc1ccc(N2CCC(NC(=O)C3(NC(=O)c4ccco4)CCCCC3)C(=O)C2)c(S(C)(=O)=O)c1 (stereo not drawn) [Example 84, 4-[N-[1-[N-(furan-2-ylcarbonyl)amino]cyclohexanecarbonyl]amino]-1-(4-methoxy-2-methylsulfonylphenyl)piperidin-3-one] | 6.24 | > 1000 | > 1000 | > 1000 | 986 | 212 | 
6 | COc1ccc(N2CCC(NC(=O)C3(NC(=O)c4ccc(F)cc4)CCCCC3)C(=O)C2)c(S(C)(=O)=O)c1 (stereo not drawn) [Example 148, 4-[N-[1-[N-(4-fluorobenzoyl)amino]cyclohexanecarbonyl]amino]-1-(2-methanesulfonyl-4-methoxyphenyl)piperidin-3-one] | 3.12 | > 1000 | > 1000 | > 1000 | 178 | 141 | 
7 | CS(=O)(=O)c1ccccc1N1CCC(NC(=O)C2(NC(=O)c3ccco3)CCCCC2)C(=O)C1 (stereo not drawn) [Example 76, 4-[N-[1-[N-(furan-2-ylcarbonyl)amino]cyclohexanecarbonyl]amino]-1-(2-methanesulfonylphenyl)piperidin-3-one] | 8.17 | > 2460 | > 2460 | > 2460 | 971 | 204 | 
8 | O=C(NC1(C(=O)NC2CCN(c3ccccc3N3CCCS3(=O)=O)CC2=O)CCCCC1)c1cc2ccccc2o1 (stereo not drawn) [Example 75] | 0.51 | > 1000 | > 1000 | > 1000 | 32.5 | > 150 | 
9 | CS(=O)(=O)c1cc(F)ccc1N1CCC(NC(=O)C2(NC(=O)c3ccc(F)cc3)CCCCC2)C(=O)C1 (stereo not drawn) [Example 147, 4-[N-[1-[N-(4-fluorobenzoyl)amino]cyclohexanecarbonyl]amino]-1-(4-fluoro-2-methanesulfonylphenyl)piperidin-3-one] | 4.77 | > 1000 | > 1000 | > 1000 | 249 | 214 | 
10 | CC(C)S(=O)(=O)c1ccccc1N1CCC(NC(=O)C2(NC(=O)c3ccco3)CCCCC2)C(=O)C1 (stereo not drawn) [Example 80, 4-[N-[1-[N-(furan-2-ylcarbonyl)amino]cyclohexanecarbonyl]amino]-1-(2-isopropylsulfonylphenyl)piperidin-3-one] | 5.05 | > 1000 | > 1000 | > 1000 | 381 | 109 | 
11 | O=C(NC1(C(=O)NC2CCN(c3ccc(F)cc3N3CCC3=O)CC2=O)CCCCC1)c1ccco1 (stereo not drawn) [Example 94, 4-[N-[1-[N-(furan-2-ylcarbonyl)amino]cyclohexanecarbonyl]amino]-1-[4-fluoro-2-(azetidin-2-one-1-yl)phenyl]piperidin-3-one] |  | > 1000 | > 1000 | > 1000 | 1450 | 197 | 
12 | CNC(=O)c1ccccc1N1CCC(NC(=O)C2(NC(=O)c3cc4ccccc4o3)CCCCC2)C(=O)C1 (stereo not drawn) [Example 62, 4-[N-[1-[N-(benzofuran-2-ylcarbonyl)amino]cyclohexanecarbonyl]amino]-1-[2-(N-methylcarbamoyl)phenyl]piperidin-3-one] |  | > 1000 | > 1000 | > 1000 | > 450 | > 450 | 
13 | O=C(NC1(C(=O)NC2CCN(c3ccccc3N3CC=CC3)CC2=O)CCCCC1)c1cc2ccccc2o1 (stereo not drawn) [Example 57] |  | > 1000 | > 1000 | > 1000 | 285 | 731 | 
14 | CN(C)C(=O)c1ccccc1N1CCC(NC(=O)C2(NC(=O)c3cc4ccccc4o3)CCCCC2)C(=O)C1 (stereo not drawn) [Example 61, 4-[N-[1-[N-(benzofuran-2-ylcarbonyl)amino]cyclohexanecarbonyl]amino]-1-[2-(N,N-dimethylcarbamoyl)phenyl]piperidin-3-one] |  | > 1000 | > 1000 | > 1000 | > 300 | > 300 | 
